Patent US5049372A, “Anticancer activities in a host by increasing blood and plasma adenosine 5'-triphosphate (ATP) levels” (priority 1988, dated 1991)

Assays:
tumor cells = conditions: low doses; prior application Ser. No. 397,897; cited from earlier work
[1] = ATP levels in mouse blood (total cellular) and plasma after i.p. injection (Table 3); type: in vivo; conditions: for Blood ATP levels: total cellular
Protocol: The mice are anesthetized with ether during the procedure. The plasma is prepared by immediate centrifugation of the blood in a Beckman microfuge (30 sec at 8000 xg). Blood (20 μl) or plasma (100 μl) aliquots are added to 1 ml of cold 7% trichloroacetic acid. […] The determination of ATP levels in the extracts is performed by bioluminometry (luciferinluciferase) using a Turner Designs Bioluminescence Photometer.

human subjects = conditions: slow injections or infusions of the same dose (40 mg); cited from earlier work
[2] = Rate of extracellular ATP degradation by human blood in vitro (Table 6); type: in vitro ADME; conditions: 1 mM, 37° C.
Protocol: (§1) *Blood (450 μl) was withdrawn into a syringe containing either 50 μ
(§2) of citratedextrose or 50 μl of heparin (100 U/ml). Whole blood was the
(§3) added to 1 mM of [^3 H]ATP in saline (25 μl) and at various time
(§4) points blood aliquots (90 μl) were removed and centrifuged. Plasma (20
(§5) μl) was withdrawn and added to 1 ml of icecold trichloroacetic acid.
(§6) Thin layer chromatography on poly(ethylene)imine cellulose was performed
(§7) according to published procedures. The rate of degradation of 1 mM of
(§8) [^3 H]ATP was linear for mouse or human blood during the initial 30
(§9) minute incubation at 37° C.

[3] = Rate of extracellular ATP degradation by mouse blood in vitro (Table 6); type: in vitro ADME; conditions: 1 mM, 37° C.
Protocol: as §1, §2, §3, §4, §5, §6, §7, §8, §9

[4] = CB6F1, 1 hour after i.p. 1 ml of 50 mM
[5] = CB6F1, 5 hours after i.p. 1 ml of 50 mM
[6] = athymic nu/nu, 1 hour after i.p. 1 ml of 50 mM
[7] = athymic nu/nu, 4 hours after i.p. 1 ml of 50 mM

Compound | Effect on growth of tumor cells in vitro (in words) (tumor cells) | Plasma ATP levels [1, 4] [µM] | Blood ATP levels [1, 4] [mM] | Plasma ATP levels [1, 5] [µM] | Blood ATP levels [1, 5] [mM] | Plasma ATP levels [1, 6] [µM] | Blood ATP levels [1, 6] [mM] | Plasma ATP levels [1, 7] [µM] | Blood ATP levels [1, 7] [mM] | Response to slow injection or infusion in human subjects (human subjects) | Rate of extracellular ATP degradation ([2]; citrate) [pmol/µL/min] | Rate of extracellular ATP degradation ([2]; heparin) [pmol/µL/min] | Rate of extracellular ATP degradation ([3]; citrate) [pmol/µL/min] | Rate of extracellular ATP degradation ([3]; heparin) [pmol/µL/min]
Nc1ncnc2c1ncn2[C@@H]1O[C@H](COP(=O)(O)O)[C@@H](O)[C@H]1O [AMP, adenosine 5'-monophosphate] | would not inhibit cellular growth | 1.75 ± 0.36 | 1.23 ± 0.21 | 1.69 ± 0.19 | 1.36 ± 0.24 | 2.17 ± 0.36 | 1.87 ± 0.46 | 1.97 ± 0.41 | 2.35 ± 0.67 | – | – | – | – | –
Nc1ncnc2c1ncn2[C@@H]1O[C@H](COP(=O)(O)OP(=O)(O)OP(=O)(O)O)[C@@H](O)[C@H]1O [ATP, adenosine 5'-triphosphate] | marked inhibition of DNA synthesis and arrest of significant populations of cells in the S phase of their cycle | 3.99 ± 0.81 | 2.53 ± 0.61 | 5.14 ± 0.71 | 3.47 ± 0.57 | 2.93 ± 0.69 | 2.71 ± 0.54 | 3.01 ± 0.76 | 4.26 ± 0.79 | much lesser or no response at all | 1.75 | 4.07 | 6.87 | 10.21
